Values of other authors, collected in patent US20050118235A1, “Dietary non-essential amino acid tyrosine regulates the body weight of animals through regulating the animal appetite or food intake” (priority 2003, published 2005).

Tested on: activity anorexia in mice
Details: tyrosine injection, activity anorexia in mice (Avraham et al. 2001)

Question: Which “effect on appetite, cognition and exercise tolerance” value does the source give for `N[C@@H](Cc1ccc(O)cc1)C(=O)O` [Tyrosine] here?
Answer: Its value is “improves appetite, cognition, and exercise tolerance”.
